# Measured values as given in US20250002512A1, “NOVEL ANTI-[…] NE[…] AND THERAPEUTIC USES THEREOF” (MARVEL BIOTECHNOLOGY, priority 2021, published 2025).
# Assays:
# [1] = molecular target: brain derived neurotrophic factor (BDNF) receptor TrkB (Homo sapiens, UniProt Q16620); conditions: cited from Shen J et al.; cited from earlier work
# [2] = system: male CD-1 mice; assay: forced swim test (FST), preclinical model of depression; format: in vivo; conditions: n=8/group, 50 mgs/kg orally once a day for seven days, FST on seventh day; for immobilization time (2-6 minutes): compared with fluoxetine 30 mg/kg, one-way ANOVA, Fisher LSD, FIG. 1; for latency to immobility: compared with vehicle control, FIG. 2
# Procedure: The forced swim test (FST) is a widely accepted pre-clinical model to test the anti-depressive effects of molecules (Can A, Dao D T, Arad M, Terrillion C E, Piantadosi S C, Gould T D. The Mouse Forced Swim Test. J Vis Exp. 2012; (59): 3638. doi: 10.3791/3638).
# Briefly, male CD-1 mice (approximately 25-35 g, n=8/group) were dosed orally once a day with either vehicle (2% aqueous DMSO, 0.5% carboxymethyl cellulose), compound 1 (50 mgs/kg in vehicle), compound 2 (50 mgs/kg in vehicle) or fluoxetine (aka. Prozac®, 30 mg/kg in vehicle) for seven days. Seven days is a comparatively short time to observe an anti-depressant effect with an orally dosed drug. On the seventh day, animals were tested in the FST and observed for abnormal behaviours (e.g. hallucinating).
# Chain of brain derived neurotrophic factor (BDNF) receptor TrkB (Q16620 32-822): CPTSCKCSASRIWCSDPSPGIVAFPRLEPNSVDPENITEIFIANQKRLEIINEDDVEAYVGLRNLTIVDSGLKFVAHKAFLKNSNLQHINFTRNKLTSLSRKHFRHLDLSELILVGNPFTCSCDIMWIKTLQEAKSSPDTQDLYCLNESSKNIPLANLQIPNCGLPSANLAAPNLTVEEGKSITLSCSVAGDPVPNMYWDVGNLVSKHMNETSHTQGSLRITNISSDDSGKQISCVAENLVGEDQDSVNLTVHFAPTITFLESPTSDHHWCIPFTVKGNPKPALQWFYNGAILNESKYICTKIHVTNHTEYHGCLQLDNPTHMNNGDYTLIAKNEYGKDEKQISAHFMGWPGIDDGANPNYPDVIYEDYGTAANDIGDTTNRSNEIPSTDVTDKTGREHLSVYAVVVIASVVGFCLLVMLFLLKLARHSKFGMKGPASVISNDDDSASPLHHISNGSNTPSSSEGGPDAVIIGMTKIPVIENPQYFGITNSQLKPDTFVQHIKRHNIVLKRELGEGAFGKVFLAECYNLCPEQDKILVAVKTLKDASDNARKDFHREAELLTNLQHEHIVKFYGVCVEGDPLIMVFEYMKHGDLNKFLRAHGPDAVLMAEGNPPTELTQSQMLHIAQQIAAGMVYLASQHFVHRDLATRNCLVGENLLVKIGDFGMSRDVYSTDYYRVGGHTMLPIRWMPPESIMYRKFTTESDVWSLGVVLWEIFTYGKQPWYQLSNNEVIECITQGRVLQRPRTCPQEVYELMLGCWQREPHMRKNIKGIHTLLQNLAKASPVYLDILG
compound,measurement,setting,value
N-[2-(5-hydroxy-1H-indol-3-yl)ethyl]-2-oxopiperidine-3-carboxyamide [HIOC],activation of BDNF receptor TrkB,[1],activate
"O=C1NCCCC1C(=O)NCCc1c[nH]c2ccc(OP(=O)(O)O)cc12 (centres unmarked) [Compound 1, N-{2-[5-(Dihydroxyphosphoryloxy)-1H-indol-3-yl]ethyl}-2-oxo-3-piperidinecarboxamide]",immobilization time (2-6 minutes),[2],significantly better than fluoxetine
same,latency to immobility,[2],better than vehicle control
"O=C(CN1CCCC1=O)NCCc1c[nH]c2ccc(OP(=O)(O)O)cc12 [Compound 2, N-{2-[5-(dihydroxyphosphoryloxy)-1H-indol-3-yl]ethyl}(2-oxo-1-pyrrolidinyl) acetamide]",immobilization time (2-6 minutes),[2],significantly better than fluoxetine
same,latency to immobility,[2],better than vehicle control
